Source: PubChem BioAssay AID2060506 (Molecular Pharmacology Branch, DTP, NCI, 2025)

Test system: 598228-144-R-J1-PDC complex spheroid viability
Test: Anticancer human tumor 598228-144-R-J1-PDC patient-derived serous endometrial adenocarcinoma cell line growth inhibition [GQUAD]
Details: for IC50: curve of first compound; for viability, T/C: stronger effect = lower value
Source text: DNA G-quadruplex Stabilizer Agents in Combinations in Complex Spheroids
A high-throughput screen of multi-cell type tumor spheroids was designed to identify active combinations of DNA G-quadruplex stabilizer agents and targeted small molecules. Complex spheroids include a stromal component modeled by human endothelial cells (HUVEC) and fibroblasts modeled by human mesenchymal stem cells (MSCs). The concentration ranges selected for each drug and investigational agent were based upon clinically achievable concentrations if the clinical Cmax of the agent was known.
Compounds. The drugs and investigational agents: pidnarulex (CX-5461; NSC782164), APTO-253 (NSC789042), BRACO-19 (NSC847499), peposertib (NSC802822), ceralasertib (NSC780249), elimusertib (NSC800525), camonsertib (NSC841442), AZD-1390 (NSC803789), olaparib (NSC753686), talazoparib (NSC767125), ART-558 (NSC835418), sotorasib (NSC818433), MRTX-1133 (NSC836407), SN-38 (NSC673596), topotecan (NSC609699), etoposide (NSC141540), doxorubicin (NSC123127), gemcitabine (NSC613327), 5-fluorouracil (NSC19893), paclitaxel (NSC125973), vemurafenib (NSC761431), panobinostat (NSC761190), R-306465 (JNJ-16241199; NSC773264), adavosertib (NSC754352), TP-3654 (NSC805149), carboplatin (NSC241240), KSQ-4279 (NSC840948), and staurosporine (NSC755774) were obtained from the National Cancer Institute (NCI) Developmental Therapeutics Program Chemical Repository (34). The FDA-approved anticancer drug set is available from the NCI Developmental Therapeutics Program. […] The stock solutions were prepared in dimethyl sulfoxide (DMSO, Sigma-Aldrich, St. Louis, MO, cat. D2650) at 800-fold the tested concentration and stored at -70 degrees C prior to their use. All drugs and investigational agents were tested over a range starting from a high concentration at or near the clinical Cmax and decreasing in half-log increments. If the clinical Cmax for an agent had not been determined, the highest concentration tested was 10 microM.
2.3 Cell Culture. All cells were maintained in an incubator at 37 degrees C and 5% CO2 with 95% humidity. The PDC lines were cultured according to standard operating procedures established by the NCI PDMR. All PDCs were thawed and cultured in Matrigel-coated flasks prepared with a working solution of 1X Ham's F-12 nutrient mix, without supplementation (Invitrogen, cat. 11765054), 100 U/mL penicillin-streptomycin (Invitrogen, cat. 15140122), and 2.5% Matrigel (Corning Inc., cat. 354248) for the first three passages. The 857933-349-R-J2-PDC line was cultured in 6C/Colon 1B media, which includes advanced DMEM/F-12 (Thermo Fisher Scientific, cat. 12634028), 10 mM HEPES (Thermo Fisher Scientific, cat. 15630080), 1X GlutaMAX supplement (Thermo Fisher Scientific, cat. 35050061), 0.1 mg/mL primocin (InvivoGen, cat. ant-pm-2), 10% defined fetal bovine serum, heat inactivated (HyClone Laboratories Inc., cat. SH30070.03HI), 50% L-WRN conditioned media (ATCC, cat. CRL-3276), 1.25 mM N-Acetyl-L-cysteine (Sigma-Aldrich, cat. A9165), 10 mM nicotinamide (Sigma-Aldrich, cat. N0636), 1X B-27 supplement (Thermo Fisher Scientific, cat. 17504044), 1X N-2 supplement (Thermo Fisher Scientific, cat. 17502048), 10 microM Y-27632 dihydrochloride (Tocris Bioscience, cat. 1254), and 50 ng/mL human EGF recombinant protein (Thermo Fisher Scientific, cat. PHG0311). The 485176-168-R4-J1-PDC line was cultured in Panc media, which includes all 6C/Colon 1B media components plus 100 ng/mL human FGF-10 (Thermo Fisher Scientific, cat. 100-26), 500 nM SB-431542 (Selleckchem, cat. S1067), and gastrin (Tocris, cat. 3006).
[…]

[1] = second compound 0.0316 µM, first compound 0.000999 µM
[2] = second compound 0.0316 µM, first compound 0.00316 µM
[3] = second compound 0.0316 µM, first compound 0.00999 µM
[4] = second compound 0.0316 µM, first compound 0.0316 µM
[5] = second compound 0.0316 µM, first compound 0.0999 µM
[6] = second compound 0.0316 µM, first compound 0.316 µM
[7] = second compound 0.1 µM, first compound 0.000999 µM
[8] = second compound 0.1 µM, first compound 0.00316 µM
[9] = second compound 0.1 µM, first compound 0.00999 µM
[10] = second compound 0.1 µM, first compound 0.0316 µM
[11] = second compound 0.1 µM, first compound 0.0999 µM
[12] = second compound 0.1 µM, first compound 0.316 µM
[13] = second compound 0.316 µM, first compound 0.000999 µM
[14] = second compound 0.316 µM, first compound 0.00316 µM
[15] = second compound 0.316 µM, first compound 0.00999 µM
[16] = second compound 0.316 µM, first compound 0.0316 µM
[17] = second compound 0.316 µM, first compound 0.0999 µM
[18] = second compound 0.316 µM, first compound 0.316 µM
[19] = second compound 1 µM, first compound 0.000999 µM
[20] = second compound 1 µM, first compound 0.00316 µM
[21] = second compound 1 µM, first compound 0.00999 µM
[22] = second compound 1 µM, first compound 0.0316 µM
[23] = second compound 1 µM, first compound 0.0999 µM
[24] = second compound 1 µM, first compound 0.316 µM
[25] = second compound 3.16 µM, first compound 0.000999 µM
[26] = second compound 3.16 µM, first compound 0.00316 µM
[27] = second compound 3.16 µM, first compound 0.00999 µM
[28] = second compound 3.16 µM, first compound 0.0316 µM
[29] = second compound 3.16 µM, first compound 0.0999 µM
[30] = second compound 3.16 µM, first compound 0.316 µM
[31] = second compound 10 µM, first compound 0.000999 µM
[32] = second compound 10 µM, first compound 0.00316 µM
[33] = second compound 10 µM, first compound 0.00999 µM
[34] = second compound 10 µM, first compound 0.0316 µM
[35] = second compound 10 µM, first compound 0.0999 µM
[36] = second compound 10 µM, first compound 0.316 µM
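Further: spheroids exposed to the agents for one week before reading.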
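Wherever viability, T/C is given: percent of vehicle DMSO control viability so 100% = untreated growth.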

Cc1[nH]c2ccccc2c1CCNCc1ccc(/C=C/C(=O)NO)cc1 + Cc1cnc(CNC(=O)c2c(=O)c3ccc(N4CCCN(C)CC4)nc3n3c2sc2ccccc23)cn1
IC50 (second compound 0.0316 µM): 54.4 nM
IC50 (second compound 0.1 µM): 20.2 nM
IC50 (second compound 0.316 µM): 16.1 nM
IC50 (second compound 1 µM): 11.6 nM
IC50 (second compound 3.16 µM): < 0.999 nM
IC50 (second compound 10 µM): < 0.999 nM
viability, T/C [1]: 104%
viability, T/C [2]: 116%
viability, T/C [3]: 85.1%
viability, T/C [4]: 67.3%
viability, T/C [5]: 32.4%
viability, T/C [6]: 0.76%
viability, T/C [7]: 80.7%
viability, T/C [8]: 71.8%
viability, T/C [9]: 61.1%
viability, T/C [10]: 41.6%
viability, T/C [11]: 26.2%
viability, T/C [12]: 0.82%
viability, T/C [13]: 69%
viability, T/C [14]: 66.9%
viability, T/C [15]: 53.3%
viability, T/C [16]: 43.7%
viability, T/C [17]: 18.4%
viability, T/C [18]: 0.28%
viability, T/C [19]: 62.7%
viability, T/C [20]: 67.1%
viability, T/C [21]: 49.7%
viability, T/C [22]: 29.8%
viability, T/C [23]: 0.26%
viability, T/C [24]: 0.37%
viability, T/C [25]: 49.4%
viability, T/C [26]: 49.4%
viability, T/C [27]: 39.9%
viability, T/C [28]: 0.32%
viability, T/C [29]: 0.34%
viability, T/C [30]: 0.25%
viability, T/C [31]: 20.6%
viability, T/C [32]: 16.2%
viability, T/C [33]: 0.43%
viability, T/C [34]: 0.33%
viability, T/C [35]: 0.34%
viability, T/C [36]: 0.31%

CCc1c2c(nc3ccc(O)cc13)-c1cc3c(c(=O)n1C2)COC(=O)[C@]3(O)CC + CN(C)c1ccc(Nc2c3ccc(NC(=O)CCN4CCCC4)cc3nc3cc(NC(=O)CCN4CCCC4)ccc23)cc1
IC50 (second compound 0.0316 µM): 7.57 nM
IC50 (second compound 0.1 µM): 13.5 nM
IC50 (second compound 0.316 µM): 12.1 nM
IC50 (second compound 1 µM): < 0.999 nM
IC50 (second compound 3.16 µM): 15 nM
IC50 (second compound 10 µM): < 0.999 nM
viability, T/C [1]: 68.8%
viability, T/C [2]: 56.2%
viability, T/C [3]: 45.6%
viability, T/C [4]: 39.7%
viability, T/C [5]: 30.5%
viability, T/C [6]: 18.8%
viability, T/C [7]: 65.3%
viability, T/C [8]: 53.1%
viability, T/C [9]: 56.1%
viability, T/C [10]: 41.2%
viability, T/C [11]: 25.3%
viability, T/C [12]: 15.5%
viability, T/C [13]: 70.2%
viability, T/C [14]: 50.4%
viability, T/C [15]: 45.7%
viability, T/C [16]: 55.3%
viability, T/C [17]: 27.7%
viability, T/C [18]: 16.9%
viability, T/C [19]: 50.5%
viability, T/C [20]: 42%
viability, T/C [21]: 49.9%
viability, T/C [22]: 49%
viability, T/C [23]: 27.7%
viability, T/C [24]: 15.9%
viability, T/C [25]: 58.6%
viability, T/C [26]: 57.2%
viability, T/C [27]: 59.1%
viability, T/C [28]: 37.4%
viability, T/C [29]: 26%
viability, T/C [30]: 16.8%
viability, T/C [31]: 60.6%
viability, T/C [32]: 33.6%
viability, T/C [33]: 37.7%
viability, T/C [34]: 45.6%
viability, T/C [35]: 23.5%
viability, T/C [36]: 10.5%
